Assays:
[1] = tested on: Puccinia recondita f. sp. tritici; assay: Test B: test suspension sprayed on wheat seedlings one day before inoculation with Puccinia recondita f. sp. tritici spores (wheat leaf rust), disease rating; format: in vivo; conditions: 100 = 100% disease control, 0 = no control; for Test B rating (disease control): 10 ppm test suspension
Excerpt: General protocol for preparing test suspensions for Tests A-C: the test compounds were first dissolved in acetone in an amount equal to 3% of the final volume and then suspended at the desired concentration (in ppm) in acetone and purified water (50/50 mix by volume) containing 250 ppm of the surfactant PEG400 (polyhydric alcohol esters). The resulting test suspensions were then used in Tests A-C. The test solution was sprayed to the point of run-off on wheat seedlings. The following day the seedlings were inoculated with a spore suspension of Puccinia recondita f. sp. tritici (the causal agent of wheat leaf rust) and incubated in a saturated atmosphere at 20° C. for 24 h, and then moved to a growth chamber at 20° C. for 6 days, after which time disease ratings were made. Results for Tests A-C are given in Table A. In the Table, a rating of 100 indicates 100% disease control and a rating of 0 indicates no disease control (relative to the controls). An asterisk “*” or a double asterisk “**” next to the rating value indicates a 50 ppm or 10 ppm test suspension was used, respectively. A dash (-) indicates the compound was not tested.

Phakopsora pachyrhizi = assay: Test A: test suspension sprayed on soybean seedlings one day before inoculation with Phakopsora pachyrhizi spores (Asian soybean rust), visual disease rating; format: in vivo; conditions: 100 = 100% disease control, 0 = no control; for Test A rating (disease control): 10 ppm test suspension
Excerpt: General protocol for preparing test suspensions for Tests A-C: the test compounds were first dissolved in acetone in an amount equal to 3% of the final volume and then suspended at the desired concentration (in ppm) in acetone and purified water (50/50 mix by volume) containing 250 ppm of the surfactant PEG400 (polyhydric alcohol esters). The resulting test suspensions were then used in Tests A-C.
The test solution was sprayed to the point of run-off on soybean seedlings. The following day the seedlings were inoculated with a spore suspension of Phakopsora pachyrhizi (the causal agent of Asian soybean rust) and incubated in a saturated atmosphere at 22° C. for 24 h, and then moved to a growth chamber at 22° C. for 8 days, after which time visual disease ratings were made.
Results for Tests A-C are given in Table A. In the Table, a rating of 100 indicates 100% disease control and a rating of 0 indicates no disease control (relative to the controls). An asterisk “*” or a double asterisk “**” next to the rating value indicates a 50 ppm or 10 ppm test suspension was used, respectively. A dash (-) indicates the compound was not tested.

Row | Structure (SMILES) | Test B rating (disease control) [1] [%] | Test A rating (disease control) (Phakopsora pachyrhizi) [%] | pest or weed control at 50 ppm ([1]; 50 ppm test suspension) [%] | pest or weed control at 50 ppm (Phakopsora pachyrhizi; Phakopsora pachyrhizi, 50 ppm test suspension) [%]
1 | C=CCOC(=O)c1ccn(Cc2ccc(O/C=C(\OCC)C(F)(F)F)cc2)n1 [compound 291] | 0 | 100 |  | 
2 | CCOC(=O)c1cn(Cc2ccc(O/C=C(\OCC)C(F)(F)F)cc2)nn1 [compound 121] | 0 | 100 |  | 
3 | CCOC(=O)c1cnn(Cc2ccc(OCC3(C(F)(F)F)OCCO3)s2)c1 [compound 273] |  |  | 0 | 100
4 | C=C(C)COC(=O)c1ccn(Cc2ccc(O/C=C(\OCC)C(F)(F)F)cc2)n1 [compound 358] | 0 | 100 |  | 
5 | CCO/C(=C\Oc1ccc(CN2CCC(C)(C)C2=O)cc1)C(F)(F)F [compound 225] | 0 | 0 |  | 
6 | CCOC(=O)C1CCCN(Cc2ccc(O/C=C(\OCC)C(F)(F)F)cc2)C1 (stereo not drawn) [compound 269] | 0 | 100 |  | 
7 | CCNC(=O)c1cnn(Cc2cccc(C/C=C(\OCC)C(F)(F)F)c2)c1 [compound 343] | 0 | 0 |  | 
8 | CCO/C(=C\Oc1ccc(CO)cc1)C(F)(F)F [compound 195] | 0 | 0 |  | 
9 | CCO/C(=C\Oc1cccc(Cn2cc(C(=O)OCC3CCC3)cn2)c1)C(F)(F)F [compound 342] | 0 | 100 |  | 
10 | O=C(OCCCCl)c1cnn(Cc2ccc(OCC3(C(F)(F)F)OCCO3)cc2)c1 [compound 161] | 0 | 100 |  | 
11 | C#CCOC(=O)c1ccc(O/C=C(\OCC)C(F)(F)F)cc1 [compound 75] | 0 | 0 |  | 
12 | C=C(C)COC(=O)c1cnn(Cc2ccc(O/C=C(\OCC)C(F)(F)F)cc2)c1 [compound 242] | 0 | 100 |  | 
13 | C=CCOC(=O)c1cnn(Cc2cccc(O/C=C(\OCC)C(F)(F)F)c2)c1 [compound 333] | 0 | 100 |  | 
14 | C=CCNC(=O)c1ccc(O/C=C(\OCC)C(F)(F)F)cc1 [compound 103] | 0 | 0 |  | 
15 | O=C(NCC1CC1)c1cnn(Cc2ccc(OCC(O)(O)C(F)(F)F)cc2)c1 [Compound 36] | 0 | 70 |  | 
16 | CCO/C(=C\Oc1ccc(Cn2nccc2C(=O)OC(C)(C)C)cc1)C(F)(F)F [compound 252] | 0 | 0 |  | 
17 | CCO/C(=C\Oc1ccc(Cn2ccc(C)n2)cc1)C(F)(F)F [compound 158] | 0 | 0 |  | 
18 | CCOC(=O)c1cc(OC)n(Cc2ccc(O/C=C(\OCC)C(F)(F)F)cc2)n1 [compound 90] | 0 | 100 |  | 
19 | C#CCOC(=O)c1ccn(Cc2ccc(O/C=C(\OCC)C(F)(F)F)cc2)n1 [compound 325] | 0 | 100 |  | 
20 | CCOC(=O)c1cnn(C(C)c2ccc(O/C=C(\OCC)C(F)(F)F)cc2)c1 (stereo not drawn) [compound 267] | 0 | 94 |  | 
21 | FC(F)(F)c1nc(-c2ccc(OCC3(C(F)(F)F)OCCO3)cc2)no1 [compound 173] | 0 | 0 |  | 
22 | COC(=O)c1cnn(Cc2ccc(OCC(O)(O)C(F)(F)F)cc2)c1 [Compound 37] | 86 | 99 |  | 
23 | O=C(OC1CCC1)c1cnn(Cc2ccc(OCC3(C(F)(F)F)OCCO3)cc2)c1 [compound 318] | 0 | 100 |  | 
24 | CCOC(=O)Cc1nnnn1Cc1ccc(O/C=C(\OCC)C(F)(F)F)cc1 [compound 84] | 0 | 0 |  | 
